Assay results: ChEMBL document CHEMBL3046904, “Synthesis, characterization, bioactivity, and POM analyses of isothiochromeno[3,4-e][1,2]oxazines” (2013)

Tests used:
Type in all cases: functional
M14 = assay: Cytotoxicity against Homo sapiens (human) M14 after 48 hr by Alamar Blue assay; conditions: M14, 48 h
PC-3 = assay: Cytotoxicity against Homo sapiens (human) PC3 after 48 hr by Alamar Blue assay; conditions: PC-3, 48 h
HCT-15 = assay: Cytotoxicity against Homo sapiens (human) HCT15 after 48 hr by Alamar Blue assay; conditions: HCT-15, 48 h
SK-MEL-5 = assay: Cytotoxicity against Homo sapiens (human) SK-MEL-5 after 48 hr by Alamar Blue assay; conditions: SK-MEL-5, 48 h
SW-620 = assay: Cytotoxicity against Homo sapiens (human) SW620 after 48 hr by Alamar Blue assay; conditions: SW-620, 48 h
HT-29 = assay: Cytotoxicity against Homo sapiens (human) HT-29 after 48 hr by Alamar Blue assay; conditions: HT-29, 48 h
HCC 2998 = assay: Cytotoxicity against Homo sapiens (human) HCC2998 after 48 hr by Alamar Blue assay; conditions: HCC 2998, 48 h
BT-549 = assay: Cytotoxicity against Homo sapiens (human) BT549 after 48 hr by Alamar Blue assay; conditions: BT-549, 48 h
OVCAR-5 = assay: Cytotoxicity against Homo sapiens (human) OVCAR5 after 48 hr by Alamar Blue assay; conditions: OVCAR-5, 48 h
SF-268 [1] = assay: Cytotoxicity against Homo sapiens (human) SF268 after 48 hr by Alamar Blue assay; conditions: SF-268, 48 h
K562 = assay: Cytotoxicity against Homo sapiens (human) K562 after 48 hr by Alamar Blue assay; conditions: K562, 48 h
HOP-92 = assay: Cytotoxicity against Homo sapiens (human) HOP92 after 48 hr by Alamar Blue assay; conditions: HOP-92, 48 h
RXF 393 = assay: Cytotoxicity against Homo sapiens (human) RXF393 after 48 hr by Alamar Blue assay; conditions: RXF 393, 48 h
UACC-62 = assay: Cytotoxicity against Homo sapiens (human) UACC62 after 48 hr by Alamar Blue assay; conditions: UACC-62, 48 h
SF-539 = assay: Cytotoxicity against Homo sapiens (human) SF539 after 48 hr by Alamar Blue assay; conditions: SF-539, 48 h
SN12C = assay: Cytotoxicity against Homo sapiens (human) SN12C after 48 hr by Alamar Blue assay
MCF7 [2] = assay: Cytotoxicity against Homo sapiens (human) MCF7 assessed as cell growth at 10^-4 M after 48 hr by Alamar Blue assay; conditions: MCF7, 48 h, read-out: Activity
U-251 = assay: Cytotoxicity against Homo sapiens (human) U251 after 48 hr by Alamar Blue assay; conditions: U-251, 48 h
DU-145 = assay: Cytotoxicity against Homo sapiens (human) DU145 after 48 hr by Alamar Blue assay; conditions: DU-145, 48 h
SK-MEL-2 = assay: Cytotoxicity against Homo sapiens (human) SK-MEL-2 after 48 hr by Alamar Blue assay; conditions: SK-MEL-2, 48 h
LOX IMVI = assay: Cytotoxicity against Homo sapiens (human) LOXIMVI after 48 hr by Alamar Blue assay
OVCAR-3 = assay: Cytotoxicity against Homo sapiens (human) OVCAR3 after 48 hr by Alamar Blue assay; conditions: OVCAR-3, 48 h
NCI-H226 = assay: Cytotoxicity against Homo sapiens (human) NCI-H226 after 48 hr by Alamar Blue assay; conditions: NCI-H226, 48 h
Hs-578T = assay: Cytotoxicity against Homo sapiens (human) Hs 578T after 48 hr by Alamar Blue assay
SF-295 = assay: Cytotoxicity against Homo sapiens (human) SF295 after 48 hr by Alamar Blue assay; conditions: SF-295, 48 h
SK-MEL-28 = assay: Cytotoxicity against Homo sapiens (human) SK-MEL-28 after 48 hr by Alamar Blue assay; conditions: SK-MEL-28, 48 h
MCF7 [3] = assay: Cytotoxicity against Homo sapiens (human) MCF7 after 48 hr by Alamar Blue assay; conditions: MCF7, 48 h
OVCAR-4 = assay: Cytotoxicity against Homo sapiens (human) OVCAR4 after 48 hr by Alamar Blue assay; conditions: OVCAR-4, 48 h
COLO 205 = assay: Cytotoxicity against Homo sapiens (human) COLO205 after 48 hr by Alamar Blue assay; conditions: COLO 205, 48 h
EKVX = assay: Cytotoxicity against Homo sapiens (human) EKVX after 48 hr by Alamar Blue assay
TK-10 = assay: Cytotoxicity against Homo sapiens (human) TK10 after 48 hr by Alamar Blue assay; conditions: TK-10, 48 h
ACHN = assay: Cytotoxicity against Homo sapiens (human) ACHN after 48 hr by Alamar Blue assay
T47D = assay: Cytotoxicity against Homo sapiens (human) T47D after 48 hr by Alamar Blue assay
MDA-MB-231 = assay: Cytotoxicity against Homo sapiens (human) MDA-MB-231 after 48 hr by Alamar Blue assay; conditions: MDA-MB-231, 48 h
SR = assay: Cytotoxicity against Homo sapiens (human) SR after 48 hr by Alamar Blue assay
SF-268 [4] = assay: Cytotoxicity against Homo sapiens (human) SF268 assessed as cell growth at 10^-4 M after 48 hr by Alamar Blue assay; conditions: SF-268, 48 h, read-out: Activity
OVCAR-8 = assay: Cytotoxicity against Homo sapiens (human) OVCAR8 after 48 hr by Alamar Blue assay; conditions: OVCAR-8, 48 h
786-0 = assay: Cytotoxicity against Homo sapiens (human) 786-0 after 48 hr by Alamar Blue assay; conditions: 786-0, 48 h
HCT-116 = assay: Cytotoxicity against Homo sapiens (human) HCT116 after 48 hr by Alamar Blue assay; conditions: HCT-116, 48 h
MDA-MB-435 = assay: Cytotoxicity against Homo sapiens (human) MDA-MB-435 after 48 hr by Alamar Blue assay; conditions: MDA-MB-435, 48 h
NCI/ADR-RES = assay: Cytotoxicity against Homo sapiens (human) NCI/ADR-RES after 48 hr by Alamar Blue assay
CAKI-1 = assay: Cytotoxicity against Homo sapiens (human) Caki1 after 48 hr by Alamar Blue assay; conditions: CAKI-1, 48 h
NCI-H460 [5] = assay: Cytotoxicity against Homo sapiens (human) NCI-H460 after 48 hr by Alamar Blue assay; conditions: NCI-H460, 48 h
IGROV-1 = assay: Cytotoxicity against Homo sapiens (human) IGROV1 after 48 hr by Alamar Blue assay; conditions: IGROV-1, 48 h
HOP-62 = assay: Cytotoxicity against Homo sapiens (human) HOP62 after 48 hr by Alamar Blue assay; conditions: HOP-62, 48 h
KM12 = assay: Cytotoxicity against Homo sapiens (human) KM12 after 48 hr by Alamar Blue assay; conditions: KM12, 48 h
NCI-H522 = assay: Cytotoxicity against Homo sapiens (human) NCI-H522 after 48 hr by Alamar Blue assay; conditions: NCI-H522, 48 h
MOLT-4 = assay: Cytotoxicity against Homo sapiens (human) MOLT4 after 48 hr by Alamar Blue assay; conditions: MOLT-4, 48 h
[6] = Cytotoxicity against Homo sapiens (human) HL-60(TB) after 48 hr by Alamar Blue assay; conditions: HL-60, 48 h
SNB-19 = assay: Cytotoxicity against Homo sapiens (human) SNB19 after 48 hr by Alamar Blue assay; conditions: SNB-19, 48 h
UACC-257 = assay: Cytotoxicity against Homo sapiens (human) UACC257 after 48 hr by Alamar Blue assay; conditions: UACC-257, 48 h
RPMI-8226 = assay: Cytotoxicity against Homo sapiens (human) RPMI8226 after 48 hr by Alamar Blue assay; conditions: RPMI-8226, 48 h
NCI-H460 [7] = assay: Cytotoxicity against Homo sapiens (human) NCI-H460 assessed as cell growth at 10^-4 M after 48 hr by Alamar Blue assay; conditions: NCI-H460, 48 h, read-out: Activity
A498 = assay: Cytotoxicity against Homo sapiens (human) A498 after 48 hr by Alamar Blue assay; conditions: A498, 48 h
A549 = assay: Cytotoxicity against Homo sapiens (human) A549 after 48 hr by Alamar Blue assay; conditions: A549, 48 h
NCI-H322M = assay: Cytotoxicity against Homo sapiens (human) NCI-H322M after 48 hr by Alamar Blue assay
Malme-3M = assay: Cytotoxicity against Homo sapiens (human) MALME-3M after 48 hr by Alamar Blue assay
NCI-H23 = assay: Cytotoxicity against Homo sapiens (human) NCI-H23 after 48 hr by Alamar Blue assay; conditions: NCI-H23, 48 h
UO-31 = assay: Cytotoxicity against Homo sapiens (human) UO31 after 48 hr by Alamar Blue assay; conditions: UO-31, 48 h

With Cc1ccc(C2=C3SC=c4ccccc4=C3ON=C2c2ccc(Cl)cc2)cc1 the GI50 (M14) was over 100 µM, the GI50 (PC-3) was 21.6 µM and the GI50 (HCT-15) was 81.2 µM. The GI50 (SK-MEL-5) was 53.1 µM, the GI50 (SW-620) was 55.6 µM and the GI50 (HT-29) was over 100 µM. The GI50 (HCC 2998) was over 100 µM, the GI50 (BT-549) was 41.2 µM and the GI50 (OVCAR-5) was over 100 µM. For the same molecule, the GI50 (SF-268 [1]) was 12.1 µM, the GI50 (K562) was 20.6 µM and the GI50 (HOP-92) was 26.5 µM. For the same molecule, the GI50 (RXF 393) was over 100 µM, the GI50 (UACC-62) was over 100 µM and the GI50 (SF-539) was over 100 µM. It also gave a GI50 (SN12C) of 11.3 µM, a growth at 100 µM (MCF7 [2]) of 2% and a GI50 (U-251) of 20 µM. It also gave a GI50 (DU-145) of over 100 µM, a GI50 (SK-MEL-2) of over 100 µM and a GI50 (LOX IMVI) of 50 µM. For the same molecule, the GI50 (OVCAR-3) was over 100 µM, the GI50 (NCI-H226) was over 100 µM and the GI50 (Hs-578T) was over 100 µM. For the same molecule, the GI50 (SF-295) was over 100 µM, the GI50 (SK-MEL-28) was over 100 µM and the GI50 (MCF7 [3]) was 31.2 µM. For the same molecule, the GI50 (OVCAR-4) was over 100 µM, the GI50 (COLO 205) was 46.2 µM and the GI50 (EKVX) was over 100 µM. It also gave a GI50 (TK-10) of over 100 µM, a GI50 (ACHN) of over 100 µM and a GI50 (T47D) of 31.4 µM. It also gave a GI50 (MDA-MB-231) of over 100 µM, a GI50 (SR) of 36.5 µM and a growth at 100 µM (SF-268 [4]) of 37%. The GI50 (OVCAR-8) was 11.6 µM, the GI50 (786-0) was 21.2 µM and the GI50 (HCT-116) was 62.7 µM. It also gave a GI50 (MDA-MB-435) of 44.2 µM, a GI50 (NCI/ADR-RES) of over 100 µM and a GI50 (CAKI-1) of over 100 µM. The GI50 (NCI-H460 [5]) was over 100 µM, the GI50 (IGROV-1) was over 10 µM and the GI50 (HOP-62) was over 100 µM. For the same molecule, the GI50 (KM12) was over 100 µM, the GI50 (NCI-H522) was 15.1 µM and the GI50 (MOLT-4) was 12.5 µM. For the same molecule, the GI50 [6] was 0.0182 nM, the GI50 (SNB-19) was over 100 µM and the GI50 (UACC-257) was 25.6 µM. The GI50 (RPMI-8226) was 11.8 µM, the growth at 100 µM (NCI-H460 [7]) was 91% and the GI50 (A498) was over 100 µM. The GI50 (A549) was over 100 µM, the GI50 (NCI-H322M) was over 100 µM and the GI50 (Malme-3M) was 22.1 µM. For the same molecule, the GI50 (NCI-H23) was 16.6 µM and the GI50 (UO-31) was over 100 µM.
